As a reminder, the inhibition is the percentage by which the read-out fell short of the control.

Holding throughout (format): biochemical
Assay [1] concerns the target T1, 17β-Hydroxysteroid Dehydrogenase Type 2 Enzyme (17β-HSD2) (Homo sapiens, UniProt P37059).
T1 construct: made in house; host or cells: Sf-9 insect cells (baculovirus)
T1 sequence (P37059 1-387): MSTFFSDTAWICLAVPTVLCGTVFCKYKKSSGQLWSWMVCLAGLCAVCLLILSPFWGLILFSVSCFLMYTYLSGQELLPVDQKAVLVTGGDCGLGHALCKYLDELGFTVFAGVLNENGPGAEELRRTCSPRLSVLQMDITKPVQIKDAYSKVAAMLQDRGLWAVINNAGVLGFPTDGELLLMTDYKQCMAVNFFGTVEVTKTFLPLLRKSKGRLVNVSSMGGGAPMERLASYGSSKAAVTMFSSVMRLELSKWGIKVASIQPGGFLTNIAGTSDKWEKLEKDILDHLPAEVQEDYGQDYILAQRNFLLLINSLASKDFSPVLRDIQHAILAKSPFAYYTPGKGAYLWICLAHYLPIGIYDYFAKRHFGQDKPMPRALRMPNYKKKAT
In words: Inhibition of the 17β-hydroxysteroid dehydrogenase type 2 enzyme, 3H-testosterone conversion. Conditions: inhibitor at 10 μM. The method, then:
Inhibition of the 17β-Hydroxysteroid Dehydrogenase Type 2 Enzyme
Recombinant human 173-HSD2 protein (GenBank Accession No. NM_002153.3) produced in Sf-9 insect cells with baculovirus was used for screening.
Recombinant protein (105 nM/4.5 μg/ml) was incubated in 20 mM KH2PO4 pH 8.5, 1 mM EDTA, complete protease inhibitor cocktail, 1 mM NAD with 56.25 nM testosterone (including ^3H-labelled testosterone) for 30 min at RT, in the presence of the potential inhibitor at 10 μM concentration. Inhibitor stock solutions were prepared in DMSO. Final concentration of DMSO was adjusted to 1% in all samples. The enzyme reaction was stopped by addition of 10% trichloroacetic acid (final concentration 1%). Samples were filtrated through […] filtration plate. Analyses of samples was done with Waters Acquity UPLC H-class equipped with XBridge C18 column and XBridge VanGuard C18 guard column. Acetonitrile: 0.1% formic acid in water (42/58 v/v) with flow of 1.2 ml/min was used for mobile phase. The eluent was mixed with scintillant and the radioactivity was monitored in the eluate by a Scintillation Analyser. The conversion percentage of tritiated substrate (testosterone) to product tritiated (androstenedione) for each sample was determined by the relative percentages of substrate and product in the chromatogram. The inhibition percentages of samples were calculated using following formula: […]

The target of assay [2] is T2, Recombinant human AKR1C3 (17β-HSD5) protein (Homo sapiens, UniProt P42330).
T2 construct: made in house; host or cells: E. coli
T2 sequence (P42330 1-323): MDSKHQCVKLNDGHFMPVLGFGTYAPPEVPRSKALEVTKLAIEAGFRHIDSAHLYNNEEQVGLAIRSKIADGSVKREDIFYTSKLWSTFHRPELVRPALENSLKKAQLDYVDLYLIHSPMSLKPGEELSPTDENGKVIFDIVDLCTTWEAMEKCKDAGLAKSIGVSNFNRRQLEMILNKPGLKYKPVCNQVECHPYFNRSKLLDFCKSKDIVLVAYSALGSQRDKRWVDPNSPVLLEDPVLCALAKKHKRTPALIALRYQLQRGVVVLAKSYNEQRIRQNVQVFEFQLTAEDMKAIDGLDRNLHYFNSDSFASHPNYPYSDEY
Put plainly: Inhibition of AKR1C3 (17β-hydroxysteroid dehydrogenase type 5) enzyme, fluorescence assay. The settings on record: inhibitor at 500 nM. The method, then: Inhibition of AKR1C3 (17β-Hydroxysteroid Dehydrogenase Type 5) Enzyme
Recombinant human AKR1C3 (17β-HSD5) protein (GenBank Accession No. NM_003739.6) produced in E. coli was used for screening. Recombinant protein (27 nM/1 μg/ml) was incubated in 20 mM KH2PO4, 1 mM EDTA, complete protease inhibitor cocktail, pH 7.4 with 1 μM 9-acetyl-2,3,6,7-tetrahydro-1H,5H,11H-pyrano[2,3-f]pyrido[3,2,1-ij]quinolin-11-one and 1 mM NADPH for 60 to 120 min at RT, in the presence of the potential inhibitor at 500 nM concentration. Inhibitor stock solutions were prepared in DMSO. Final concentration of DMSO was adjusted to 1% in all samples. The samples were analysed by fluorescent measurement with Tecan Spark microplate reader at wavelengths 420 nm for excitation and 510 nm for emission. Samples were evaluated against standards of 9-(1-hydroxyethyl)-2,3,6,7-tetrahydro-1H,5H,11H-pyrano[2,3-f]pyrido[3,2,1-ij]quinolin-11-one at concentrations 1 μM-10 nM. Background fluorescence was reduced from all the samples and standards. The concentrations of formed product were calculated from the standard curve with Tecan Spark Magellan software. The formed product concentrations were used to calculate conversion percentages. The inhibition percentages for the samples were calculated from the conversion percentages.
Inhibition percentages of samples were calculated using following formula: […]

For assay [3], the target named is T3, Recombinant human aldo-keto reductase family 1 member C2 (AKR1C2) protein (Homo sapiens, UniProt P52895).
T3 construct: made in house; host or cells: Sf-9 insect cells (baculovirus)
T3 sequence (P52895 1-323): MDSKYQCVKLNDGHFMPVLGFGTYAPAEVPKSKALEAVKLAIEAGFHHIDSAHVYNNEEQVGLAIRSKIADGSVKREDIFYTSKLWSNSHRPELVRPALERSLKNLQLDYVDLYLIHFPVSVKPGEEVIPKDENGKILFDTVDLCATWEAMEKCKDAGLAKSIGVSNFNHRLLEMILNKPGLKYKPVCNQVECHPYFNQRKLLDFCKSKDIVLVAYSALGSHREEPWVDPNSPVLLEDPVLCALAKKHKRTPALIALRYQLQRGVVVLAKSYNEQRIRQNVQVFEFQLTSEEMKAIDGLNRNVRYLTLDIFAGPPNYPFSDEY
Put plainly: Inhibition of the aldo-keto reductase family 1 member C2, 3H-dihydrotestosterone conversion. Conditions: inhibitor at 10 μM. The method, then:
Inhibition of the Aldo-Keto Reductase Family 1 Member C2
Recombinant human aldo-keto reductase family 1 member C2 (AKR1C2) protein (GenBank Accession No. NM_001354.6) produced in Sf-9 insect cells with baculovirus was used for screening. Recombinant protein (13.6 nM/0.5 μg/ml) was incubated in 20 mM KH2PO4 pH 7.4, 1 mM EDTA, complete protease inhibitor tablet, 1 mM NADPH with 6.25 nM ^3H-labelled dihydrotestosterone for 45 min at +37° C., in the presence of the potential inhibitor at 10 μM concentration. Inhibitor stock solutions were prepared in DMSO. Final concentration of DMSO was adjusted to 1% in all samples. The enzyme reaction was stopped by addition of 10% trichloroacetic acid (final concentration 1%). Samples were filtrated through […] filtration plate (Merck). Analyses of samples was done with Waters Acquity UPLC H-class equipped with XBridge C18 column and XBridge VanGuard C18 guard column. Acetonitrile: 0.1% formic acid in water (42/58 v/v) with flow of 1.2 ml/min was used for mobile phase. The eluent was mixed with scintillant and the radioactivity was monitored in the eluate by a Scintillation Analyser. The conversion percentage of triated substrate (dihydrotestosterone) to tritiated product (5α-androstane-3α,17β-diol) for each sample was determined by the relative percentages of substrate and product in the chromatogram. The inhibition percentages of samples were calculated using following formula: […]

In the case of `N#CC(=C1CCN(C(=O)N2CCOCC2)CC1)c1ccc(F)cc1` [Compound 1, 2-(4-fluorophenyl)-2-(1-(morpholine-4-carbonyl)piperidin-4-ylidene)acetonitrile], the inhibition at 10 µM in assay [1] was 2%; in assay [3], 5%. Also, the inhibition at 0.5 µM in assay [2] is 99%.

`N#CC(=C1CCN(C(=O)N2CCOCC2)CC1)c1ccc(Cl)cc1` [Compound 2, 2-(4-chlorophenyl)-2-(1-(morpholine-4-carbonyl)piperidin-4-ylidene)acetonitrile]: the inhibition at 10 µM came out at 3% in assay [1] and 4% in assay [3]. For the same compound, in assay [2], the inhibition at 0.5 µM was 99%.

In the case of `N#CC(=C1CCN(C(=O)N2CCCCC2)CC1)c1ccc(F)cc1` [Compound 3, 2-(4-fluorophenyl)-2-(1-(piperidine-1-carbonyl)piperidin-4-ylidene)acetonitrile], the inhibition at 10 µM in assay [1] came to 28%; in assay [3], 18%. For the same compound, the inhibition at 0.5 µM in assay [2] was found to be 95%.

For the compound `N#CC(=C1CCN(C(=O)N2CCC(O)CC2)CC1)c1ccc(F)cc1` [Compound 4, 2-(4-fluorophenyl)-2-(1-(4-hydroxypiperidine-1-carbonyl)piperidin-4-ylidene)acetonitrile], the inhibition at 10 µM in assay [1] amounted to 8%; in assay [3] it was 0%. Besides, the inhibition at 0.5 µM in assay [2] amounted to 99%.

Take `CCN(CC)C(=O)N1CCC(=C(C#N)c2ccc(F)cc2)CC1` [Compound 5, 4-(cyano(4-fluorophenyl)methylene)-N,N-diethylpiperidine-1-carboxamide]: the inhibition at 10 µM in assay [1] and in assay [3] was 15% each time. In assay [2], the inhibition at 0.5 µM amounted to 99%.

On to `N#CC(=C1CCN(C(=O)N2CCCC2)CC1)c1ccc(F)cc1` [Compound 6, 2-(4-fluorophenyl)-2-(1-(pyrrolidine-1-carbonyl)piperidin-4-ylidene)acetonitrile], for which the inhibition at 10 µM in assay [1] was 10%; in assay [3], 8%. Besides, in assay [2], the inhibition at 0.5 µM came to 95%.

`CO[C@@H]1CCN(C(=O)N2CCC(=C(C#N)c3ccc(F)cc3)CC2)C1` [Compound 7, (R)-2-(4-fluorophenyl)-2-(1-(3-methoxypyrrolidine-1-carbonyl)piperidin-4-ylidene)acetonitrile]: the inhibition at 10 µM in assay [1] was 1%; in assay [3], 9%. Further, the inhibition at 0.5 µM in assay [2] stood at 95%.

As to `COC[C@@H]1CCCN1C(=O)N1CCC(=C(C#N)c2ccc(F)cc2)CC1` [Compound 8, (S)-2-(4-fluorophenyl)-2-(1-(2-(methoxymethyl)pyrrolidine-1-carbonyl)piperidin-4-ylidene)acetonitrile], the results for the inhibition at 10 µM in assay [1] and in assay [3] were 8% and 7%, respectively. The inhibition at 0.5 µM in assay [2] came to 98%.

`N#CC(=C1CCN(C(=O)N2CC[C@H](O)C2)CC1)c1ccc(F)cc1` [Compound 9, (S)-2-(4-fluorophenyl)-2-(1-(3-hydroxypyrrolidine-1-carbonyl)piperidin-4-ylidene)acetonitrile]: the inhibition at 10 µM in assay [1] worked out at 13%; in assay [3], 4%. Moreover, the inhibition at 0.5 µM in assay [2] stood at 89%.

Regarding `N#CC(=C1CCN(C(=O)N2CCCCC2)CC1)c1cc(F)cc(F)c1` [Compound 10, 2-(3,5-difluorophenyl)-2-(1-(piperidine-1-carbonyl)piperidin-4-ylidene)acetonitrile], the figures for the inhibition at 10 µM in assay [1] and in assay [3] were 4% and 10%, respectively. Besides, in assay [2], the inhibition at 0.5 µM stood at 89%.

For `N#CC(=C1CCN(C(=O)N2Cc3ccccc3C2)CC1)c1ccc(F)cc1` [Compound 11, 2-(4-fluorophenyl)-2-(1-(isoindoline-2-carbonyl)piperidin-4-ylidene)acetonitrile], the figures for the inhibition at 10 µM in assay [1] and in assay [3] were 24% and 17%, respectively. Also, the inhibition at 0.5 µM in assay [2] was 96%.

These data come from patent US12637471B2, “Heterocyclic compounds, compositions, methods of preparation and uses thereof” (Organon R&D Finland Ltd, priority 2021, dated 2026).
